These are literature values, as cited in PMC9436819 (JACC: Basic to Translational Science, 2022).

The test system of data set [1] is patients with obstructive HCM. Further details: method as in PMID 32871100. To be noted: cited from earlier work.
Details of data set [2]: method as in PMID 30044681, PMID 31035291. To be noted: cited from earlier work.

For the compound `CC(C)n1c(=O)cc(N[C@@H](C)c2ccccc2)[nH]c1=O` [Mavacamten], in data set [1], the “LV outflow tract pressure gradients” value is “reduced”. Besides, the “Improving exercise capacity and health status” value in data set [1] (vs placebo) is recorded as “superior to placebo”. Further, the “Time required to reach a steady state” value in data set [2] was 6 weeks.
